pIC50: −log10 of the molar value. Calls of active or inactive are those of the source. No cut-off for these calls is given here.
Legend:
Bacillus anthracis [1] = assay: Antibacterial activity against Bacillus anthracis infected in Fischer 344 rat assessed as enhancement of survival rate against lethal toxin-mediated toxicity at 1.25 mg, iv coadministered along with 10 ug bacterial lethal factor measured up to 8 hrs; assay type: functional, organism-based
Lethal factor = biological target: T1, Lethal factor (Bacillus anthracis, UniProt P15917); assay: Inhibition of Bacillus anthracis lethal factor
T1 sequence (P15917 whole entry): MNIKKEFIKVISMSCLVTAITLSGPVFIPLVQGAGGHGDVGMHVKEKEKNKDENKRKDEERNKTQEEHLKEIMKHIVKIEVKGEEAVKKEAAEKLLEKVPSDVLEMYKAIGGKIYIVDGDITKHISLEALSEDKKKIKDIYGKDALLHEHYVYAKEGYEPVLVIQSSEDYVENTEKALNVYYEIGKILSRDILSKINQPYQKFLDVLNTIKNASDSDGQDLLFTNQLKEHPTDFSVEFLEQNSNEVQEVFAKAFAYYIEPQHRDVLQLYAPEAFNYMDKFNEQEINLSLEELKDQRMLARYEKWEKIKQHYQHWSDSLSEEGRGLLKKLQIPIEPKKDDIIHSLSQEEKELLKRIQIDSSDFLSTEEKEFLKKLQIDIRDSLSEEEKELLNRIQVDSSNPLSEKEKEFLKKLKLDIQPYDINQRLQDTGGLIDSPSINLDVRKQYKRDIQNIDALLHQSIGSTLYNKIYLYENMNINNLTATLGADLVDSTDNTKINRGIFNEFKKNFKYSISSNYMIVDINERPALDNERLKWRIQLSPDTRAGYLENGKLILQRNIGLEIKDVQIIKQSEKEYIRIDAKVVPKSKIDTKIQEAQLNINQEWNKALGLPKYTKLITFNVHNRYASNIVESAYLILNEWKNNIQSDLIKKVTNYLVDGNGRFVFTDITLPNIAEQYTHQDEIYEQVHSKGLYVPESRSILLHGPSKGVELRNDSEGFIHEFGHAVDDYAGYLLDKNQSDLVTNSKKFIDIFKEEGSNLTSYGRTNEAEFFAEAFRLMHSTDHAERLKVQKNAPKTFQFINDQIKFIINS

Bacillus anthracis [2] = assay: Antibacterial activity against Bacillus anthracis infected in Fischer 344 rat assessed as enhancement of survival rate against lethal toxin-mediated toxicity at 0.25 mg, iv coadministered along with 10 ug bacterial lethal factor measured up to 8 hrs; assay type: functional, organism-based
Bacillus anthracis [3] = assay: Antibacterial activity against Bacillus anthracis infected in Fischer 344 rat assessed as enhancement of survival rate against lethal toxin-mediated toxicity at 1.25 mg, iv administered 30 mins prior to 10 ug bacterial lethal factor infusion measured up to 8 hrs; assay type: functional, organism-based
Bacillus anthracis [4] = assay: Antibacterial activity against Bacillus anthracis infected in Fischer 344 rat assessed as time to death at 0.25 mg, iv coadministered along with 10 ug bacterial lethal factor up to 8 hrs; assay type: functional
Bacillus anthracis [5] = assay: Antibacterial activity against Bacillus anthracis infected in Fischer 344 rat assessed as time to death at 0.017 mg, iv coadministered along with 10 ug bacterial lethal factor up to 8 hrs; assay type: functional
Bacillus anthracis [6] = assay: Antibacterial activity against Bacillus anthracis infected in Fischer 344 rat assessed as enhancement of survival rate against lethal toxin-mediated toxicity at 0.085 mg, iv coadministered along with 10 ug bacterial lethal factor measured up to 8 hrs; assay type: functional, organism-based
Bacillus anthracis [7] = assay: Antibacterial activity against Bacillus anthracis Sterne infected in DBA/2 mouse assessed survival rate at 2.5 mg/kg, iv QD for 10 days measured post last dose in presence of 50 mg/kg/day, ip ciprofloxacin; assay type: functional
Bacillus anthracis [8] = assay: Antibacterial activity against Bacillus anthracis Sterne infected in DBA/2 mouse at 2.5 mg/kg, iv QD for 10 days measured post last dose; assay type: functional, organism-based; parameters: dose 2.5 mg/kg

| Structure (SMILES) | Activity (Bacillus anthracis [1]) | pIC50 (Lethal factor) | Activity (Bacillus anthracis [2]) | Activity (Bacillus anthracis [3]) | Time (Bacillus anthracis [4]) | Time (Bacillus anthracis [5]) | Activity (Bacillus anthracis [6]) | Activity (Bacillus anthracis [7]) | Activity (Bacillus anthracis [8]) |
| --- | --- | --- | --- | --- | --- | --- | --- | --- | --- |
| NCCCSC[C@H]1O[C@H]2O[C@H]3[C@H](O)[C@@H](O)[C@H](O[C@H]4[C@H](O)[C@@H](O)[C@H](O[C@H]5[C@H](O)[C@@H](O)[C@H](O[C@H]6[C@H](O)[C@@H](O)[C@H](O[C@H]7[C@H](O)[C@@H](O)[C@H](O[C@H]8[C@H](O)[C@@H](O)[C@H](O[C@H]1[C@H](O)[C@H]2O)O[C@@H]8CSCCCN)O[C@@H]7CSCCCN)O[C@@H]6CSCCCN)O[C@@H]5CSCCCN)O[C@@H]4CSCCCN)O[C@@H]3CSCCCN | Active | 5.54 | inactive | Active | 130 min | – | – | – | – |
| NCc1ccc(CSC[C@H]2O[C@H]3O[C@H]4[C@H](O)[C@@H](O)[C@H](O[C@H]5[C@H](O)[C@@H](O)[C@H](O[C@H]6[C@H](O)[C@@H](O)[C@H](O[C@H]7[C@H](O)[C@@H](O)[C@H](O[C@H]8[C@H](O)[C@@H](O)[C@H](O[C@H]9[C@H](O)[C@@H](O)[C@H](O[C@H]2[C@H](O)[C@H]3O)O[C@@H]9CSCc2ccc(CN)cc2)O[C@@H]8CSCc2ccc(CN)cc2)O[C@@H]7CSCc2ccc(CN)cc2)O[C@@H]6CSCc2ccc(CN)cc2)O[C@@H]5CSCc2ccc(CN)cc2)O[C@@H]4CSCc2ccc(CN)cc2)cc1 | – | 6.15 | Active | Active | – | 382 min | Active | – | – |
| NCc1cccc(CSC[C@H]2O[C@H]3O[C@H]4[C@H](O)[C@@H](O)[C@H](O[C@H]5[C@H](O)[C@@H](O)[C@H](O[C@H]6[C@H](O)[C@@H](O)[C@H](O[C@H]7[C@H](O)[C@@H](O)[C@H](O[C@H]8[C@H](O)[C@@H](O)[C@H](O[C@H]9[C@H](O)[C@@H](O)[C@H](O[C@H]2[C@H](O)[C@H]3O)O[C@@H]9CSCc2cccc(CN)c2)O[C@@H]8CSCc2cccc(CN)c2)O[C@@H]7CSCc2cccc(CN)c2)O[C@@H]6CSCc2cccc(CN)c2)O[C@@H]5CSCc2cccc(CN)c2)O[C@@H]4CSCc2cccc(CN)c2)c1 | Active | 6.30 | Active | Active | – | 285 min | Active | <=90% | Active |
| NCCCCCCCCSC[C@H]1O[C@H]2O[C@H]3[C@H](O)[C@@H](O)[C@H](O[C@H]4[C@H](O)[C@@H](O)[C@H](O[C@H]5[C@H](O)[C@@H](O)[C@H](O[C@H]6[C@H](O)[C@@H](O)[C@H](O[C@H]7[C@H](O)[C@@H](O)[C@H](O[C@H]8[C@H](O)[C@@H](O)[C@H](O[C@H]1[C@H](O)[C@H]2O)O[C@@H]8CSCCCCCCCCN)O[C@@H]7CSCCCCCCCCN)O[C@@H]6CSCCCCCCCCN)O[C@@H]5CSCCCCCCCCN)O[C@@H]4CSCCCCCCCCN)O[C@@H]3CSCCCCCCCCN | – | 6.52 | Active | Active | – | 623 min | Active | – | – |
